Where two headings read alike, the source gives them in different places.
Tests used:
[1] = test system: human breast tumor MCF-7 cell line; assay: MTT antiproliferative assay on human MCF-7 cell line; type: cell-based; conditions: for IC50: MTT inhibition of proliferation, mean of triplicate determinations; for % Cell viability: 72 h, MTT, MCF-7
Text: EXAMPLE 14—Determination of the antiproliferative effects on human MCF-7 cell lines.
MTT is a yellow tetrazolium salt which is taken up only by metabolically active cells and subsequently cleaved by mitochondrial dehydrogenases to yield a purple crystalline formazan dye. On solubilisation this purple color may be read spectrophotometrically at 570 nm. The absorbance measured at this wavelength is directly proportional to the amount of viable cells present.
Procedure : The human breast tumor MCF-7 cell line was cultured in Eagles minimum essential medium in a 5% CO2 atmosphere with 10% fetal calf serum. The medium was supplemented with 1% non-essential amino acids. The cells were trypsinized and seeded at a density of 1.5×10^4 into a 96-well plate and incubated at 37° C., 5% CO2 atmosphere for 24 h. […] Control wells contained the equivalent volume of the vehicle ethanol (1% v/v). The culture medium was then removed and the cells washed with 100 μl PBS and 50 μl MTT added, to reach a final concentration of 1 mg/ml MTT added. The cells were incubated for 2 h in darkness at […]. At this point solubilisation was begun through the addition of 200 μl DMSO and the cells maintained at room temperature in darkness for 20 min to ensure thorough color diffusion before reading the absorbance. The absorbance value of control cells (no added compound) was set to 100% cell viability. Graphs of absorbance versus cell density per well were prepared to assess cell viability.

[2] = test system: human MCF-7 breast cancer cells; assay: LDH release cytotoxicity assay on human MCF-7 cells; type: cell-based; conditions: 72 h
Text: EXAMPLE 15—Determination of the cytotoxic effects on human MCF-7 cell lines.
Lactate dehydrogenase (LDH) is a cytosolic enzyme released upon cell lysis (death). Through the use of a commercial LDH assay kit, released LDH converts a substrate tetrazolium salt into a soluble red formazan product. The absorbance of this dye can be measured directly at 490 nm, the color formed is proportional to the number of lysed cells, and as such the extent of cytotoxic activity for the compound added may be assessed.
Procedure : As with the cell proliferation assay, human MCF-7 breast cancer cells were plated at a density of 1.5×10^4 per well in a 96-well plate, then incubated at 37° C., 5% CO2 atmosphere for 24 h. The cells were treated with the compound of choice at varying concentrations (1nM-100 μM), then incubated for a further 72 h. Following incubation 50 μl aliquots of medium were removed to a fresh 96-well plate. A 50 μl per well LDH substrate mixture was added and the plate left in darkness at room temperature for 30 minutes. Stop solution (50 μl) was added to all wells before reading the absorbance at 490 nm. A control of 100% lysis was determined for a set of untreated cells which were lysed through the addition of 20 μl lysis solution to the media 45 min prior to harvesting.

[3] = Homo sapiens, MCF7, read-out: IC50 Range
[4] = Homo sapiens, MCF7, read-out: IC50

Molecule “1,2-Diphenyl-2-[(4-pipyridinylethoxy)benzyl]but-1-ene [Compound 19]” has an IC50 ([1]; read-out: IC50 Range) of 65 to 70 µM.
Molecule CCC(Cc1ccccc1)=C(c1ccccc1)c1ccc(OCCN(CC)CC)cc1 [Compound 2, 2-Benzyl-1-phenyl-1-[4-(diethylaminoethoxy)phenyl]but-1-ene] has an IC50 [1, 3] of 10 to 15 µM.
CCC(Cc1ccccc1)=C(c1ccccc1)c1ccc(OCCN2CCCC2)cc1 [Compound 3, 2-Benzyl-1-phenyl-1-[4-(pyrrolidinylethoxy)phenyl]but-1-ene] showed an IC50 ([1]; read-out: IC50 Range) of 1 to 5 µM.
With CCC(Cc1ccccc1)=C(c1ccccc1)c1ccc(OCCN2CCCCC2)cc1 [Compound 4, 2-Benzyl-1-phenyl-1-[4-(pipyridinylethoxy)phenyl]but-1-ene] the “% Cell viability” value ([1]; 1 nM) was 103.8%, the “% Cell viability” value ([1]; 10 nM) was 100.3% and the “% Cell viability” value ([1]; 100 nM) was 91.14%. For the same molecule, the “% Cell viability” value ([1]; 1 μM) was 85.13%, the “% Cell viability” value ([1]; 10 μM) was 29.11% and the “% Cell viability” value ([1]; 50 μM) was 1.58%. The “% Cell viability” value ([1]; 100 μM) was 1.27%, the IC50 ([1]; read-out: IC50 Range) was 1 to 5 µM and the “% Cytotoxicity” value ([2]; 1 nM) was 3.67%. For the same molecule, the “% Cytotoxicity” value ([2]; 10 μM) was 34.76%, the “% Cytotoxicity” value ([2]; 50 μM) was 49.44% and the “% Cytotoxicity” value ([2]; 100 μM) was 49.14%.
With CCC(Cc1ccccc1)=C(c1ccccc1)c1ccc(OCCN2CCOCC2)cc1 [Compound 5, 2-Benzyl-1-phenyl-1-[4-(morpholinylethoxy)phenyl]but-1-ene] the IC50 ([1]; read-out: IC50 Range) was 40 to 50 µM.
Molecule CCC(=C(Cc1ccccc1)c1ccc(OCCN(CC)CC)cc1)c1ccccc1 [Compound 7, 1-Benzyl-2-phenyl-[1-(4-diethylaminoethoxy)phenyl]-but-1-ene] has an IC50 ([1]; read-out: IC50 Range) of 15 to 20 µM.
In the case of CC/C(=C(\Cc1ccccc1)c1ccc(OCCN2CCCC2)cc1)c1ccccc1 [Compound 8, 1-Benzyl-2-phenyl-[1-(4-pyrrolidinylethoxy)phenyl]-but-1-ene], the IC50 [1, 3] is reported as 10 to 15 µM.
Work on CC/C(=C(\Cc1ccccc1)c1ccc(OCCN2CCCCC2)cc1)c1ccccc1 [Compound 9, 1-Benzyl-2-phenyl-[1-(4-pipyridinylethoxy)phenyl]-but-1-ene] yielded an IC50 [1, 3] of 70 to 80 µM.
With CC/C(=C(\Cc1ccccc1)c1ccc(OCCN2CCOCC2)cc1)c1ccccc1 [Compound 10, 1-Benzyl-2-phenyl[1-(5-morpholinylethoxy)phenyl]but-1-ene] the IC50 [1, 3] was 1 to 5 µM.
CC/C(=C(\Cc1ccccc1)c1ccccc1)c1ccc(OCCN(C)C)cc1 [Compound 11, 1-Benzyl-1-phenyl-2-[(4-dimethylaminoethoxy)phenyl]but-1-ene] gave an IC50 [1, 3] of 115 to 120 µM.
Molecule CCC(=C(Cc1ccccc1)c1ccccc1)c1ccc(OCCN(CC)CC)cc1 [Compound 12, 1-Benzyl-1-phenyl-2-[(4-diethylaminoethoxy)phenyl]but-1-ene] has an IC50 ([1]; read-out: IC50 Range) of 20 to 25 µM.
For CCC(=C(Cc1ccccc1)c1ccccc1)c1ccc(OCCN2CCCC2)cc1 [Compound 13, 1-Benzyl-1-phenyl-2-[(4-pyrrolidinylethoxy)phenyl]but-1-ene], the IC50 ([1]; read-out: IC50 Range) was 20 to 25 µM.
With CCC(=C(Cc1ccccc1)c1ccccc1)c1ccc(OCCN2CCOCC2)cc1 [Compound 15, 1-Benzyl-1-phenyl-2-[(4-morpholinylethoxy)phenyl]but-1-ene] the IC50 ([1]; read-out: IC50 Range) was 50 to 55 µM.
In the case of CC/C(=C(/Cc1ccc(OCCN(C)C)cc1)c1ccccc1)c1ccccc1 [Compound 16], the IC50 [1, 3] is reported as 25 to 30 µM.
Work on CCC(=C(Cc1ccccc1OCCN(CC)CC)c1ccccc1)c1ccccc1 [Compound 17, 1,2-Diphenyl-2-[2-(diethylaminoethoxy)benzyl]but-1-ene] yielded an IC50 ([1]; read-out: IC50 Range) of 55 to 60 µM.
In the case of CCC(=C(Cc1ccc(OCCN2CCCC2)cc1)c1ccccc1)c1ccccc1 [Compound 18], the IC50 ([1]; read-out: IC50 Range) is reported as 140 to 145 µM.
CCC(Cc1ccccc1)=C(c1ccc(OCCN2CCCC2)cc1)c1ccc(OC(=O)C(C)(C)C)cc1 [Compound 21] gave an IC50 ([1]; read-out: IC50 Range) of 1 to 10 µM.
With CCC(Cc1ccccc1)=C(c1ccc(OCCN(C)C)cc1)c1ccc(OC(=O)C(C)(C)C)cc1 [Compound 22] the IC50 ([1]; read-out: IC50 Range) was 10 to 50 µM.
CCC(Cc1ccccc1)=C(c1ccc(OCCN2CCOCC2)cc1)c1ccc(OC(=O)C(C)(C)C)cc1 [Compound 23] was tested, and the IC50 ([1]; read-out: IC50 Range) was 0.1 to 1 µM.
Molecule CCC(Cc1ccccc1)=C(c1ccc(O)cc1)c1ccc(OCCN(C)C)cc1 [Compound 24, 4-{2-Benzyl-1-[4-(2-dimethylamino-ethoxy)-phenyl]-but-1-enyl}-phenol] has an IC50 [1, 3] of 0.01 to 0.1 µM.
In the case of CC/C(Cc1ccccc1OC)=C(/c1ccc(OCCN2CCCC2)cc1)c1ccc(OC(=O)C(C)(C)C)cc1 [Compound 26, 2,2-Dimethyl-propionic acid 4-{2-(2-methoxybenzyl)-1-[4-(2-pyrrolidin-1-yl-ethoxy)-phenyl]-but-1-enyl}-phenyl ester], the IC50 [1, 3] is reported as 1 to 10 µM.
Molecule CCC(Cc1ccccc1)=C(c1ccccc1)c1ccc(NCCOC)cc1 [Compound 27, [4-(2-Benzyl-1-phenylbut-1-enyl)-phenyl]-(2-methoxyethyl)-amine] has an IC50 [1, 4] of 33.7 µM.
In the case of CCOCCNc1ccc(C(=C(CC)Cc2ccccc2)c2ccccc2)cc1 [Compound 28, [4-(2-Benzyl-1-phenylbut-1-enyl)-phenyl]-(2-ethoxyethyl)-amine], the IC50 [1, 4] is reported as 36.8 µM.
Molecule CCCOCCNc1ccc(C(=C(CC)Cc2ccccc2)c2ccccc2)cc1 [Compound 29, [4-(2-Benzyl-1-phenylbut-1-enyl)-phenyl]-(2-propoxyethyl)-amine] has an IC50 [1, 4] of 46.9 µM.
With CCC(Cc1ccccc1)=C(c1ccccc1)c1ccc(NCCCOC)cc1 [Compound 30, [4-(2-Benzyl-1-phenylbut-1-enyl)-phenyl]-(3-methoxypropyl)-amine] the IC50 [1, 4] was 35.4 µM.
Work on CCOCCCNc1ccc(/C(=C(/CC)Cc2ccccc2)c2ccccc2)cc1 [Compound 31, [4-(2-benzyl-1-phenylbut-1-enyl)-phenyl]-(3-ethoxypropyl)-amine] yielded an IC50 [1, 4] of 14.1 µM.
In the case of CCCOCCCNc1ccc(C(=C(CC)Cc2ccccc2)c2ccccc2)cc1 [Compound 32, [4-(2-Benzyl-1-phenylbut-1-enyl)-phenyl]-(3-propoxypropyl)-amine], the IC50 [1, 4] is reported as 23.3 µM.
For CCC(Cc1ccccc1)=C(c1ccccc1)c1ccc(NCCO)cc1 [Compound 33, 2-[4-(2-Benzyl-1-phenylbut-1-enyl)-phenylamino]-ethanol], the IC50 [1, 4] was 39.5 µM.
For CCC(Cc1ccccc1)=C(c1ccccc1)c1ccc(NCCCO)cc1 [Compound 34, 3-[4-(2-Benzyl-1-phenylbut-1-enyl)-phenylamino]-propan-1-ol], the IC50 [1, 4] was 34 µM.
Molecule CCC(Cc1ccccc1)=C(c1ccccc1)c1ccc(OCCO)cc1 [Compound 35, 2-[4-(2-Benzyl-1-phenylbut1enyl)-phenoxy]-ethanol] has an IC50 [1, 4] of 24.9 µM.
CCC(Cc1ccccc1)=C(c1ccccc1)c1ccc(OCCCO)cc1 [Compound 36, 3-[4-(2-Benzyl-1-phenylbut-1-enyl)-phenoxy]-propan-1-ol] was tested, and the IC50 [1, 4] was 20.2 µM.
Molecule CCC(Cc1ccccc1)=C(c1ccc(NCCOC)cc1)c1ccc(OC)cc1 [Compound 37, {4-[2-Benzyl-1-(4-methoxyphenyl)-but-1-enyl]-phenyl}-(2-methoxyethyl)-amine] has an IC50 [1, 4] of 34.4 µM.
With CCC(Cc1ccc(OC)cc1)=C(c1ccc(NCCOC)cc1)c1ccc(OC)cc1 [Compound 38, {4-[2-(4-methoxybenzyl)-1-(4-methoxyphenyl)-but-1-enyl]-phenyl}-(2-methoxyethyl)-amine] the IC50 [1, 4] was 51.8 µM.
For CCC(Cc1ccc(OC)cc1)=C(c1ccccc1)c1ccc(NCCOC)cc1 [Compound 39, {4-[2-(4-methoxybenzyl)-1-phenylbut-1-enyl]-phenyl}-(2-methoxyethyl)-amine], the IC50 [1, 4] was 49.5 µM.
CCC(Cc1ccccc1)=C(c1ccccc1)c1ccc(OCCOC)cc1 [Compound 40, 1-(2-Benzyl-1-phenylbut-1-enyl)-4-(2-methoxyethoxy)-benzene] was tested, and the IC50 [1, 4] was 41.7 µM.
With CCC(Cc1ccc(O)cc1)=C(c1ccccc1)c1ccc(NCCOC)cc1 [Compound 41, 4-{2-Ethyl-3-[4-(2-methoxyethylamino)-phenyl]-3-phenylallyl}-phenol] the IC50 [1, 4] was 32.4 µM.
CCC(Cc1ccccc1)=C(c1ccccc1)c1ccc(NCCN(C)C)cc1 [Compound 42, N′-[4-(2-Benzyl-1-phenylbut-1-enyl)-phenyl]-N,N-dimethylethane-1,2-diamine] gave an IC50 [1, 4] of 13.7 µM.
